Results as given in paper PMC10536004, “Gallation and B-Ring Dihydroxylation Increase Green Tea Catechin Residence Time in Plasma by Differentially Affecting Tissue-Specific Trafficking: Compartmental Model of Catechin Kinetics in Healthy Adults” (Nutrients, 2023).
Like-named read-outs stand apart in the source and are kept apart here.

How the values were obtained:
[1] = tested on: nonalcoholic steatohepatitis; design: method as in PMID 32688217; conditions: obese mice, equal doses in diet; cited from earlier work
[2] = Compartmental model of catechin kinetics from plasma and urine pharmacokinetic data after ingestion of GTE confection; format: in vivo, healthy adults
From the text: Data for the present study were obtained from our prior investigation of the pharmacokinetics of green tea polyphenols in healthy adults. The study protocol was approved by the Biomedical Institutional Review Board at Ohio State University (#2017H0246) and registered at ClinicalTrials.gov (NCT03413735). In brief, 19 healthy adults (10 males and 9 females; 27 ± 2 y; 22 ± 0 kg/m^2) who were normotensive (systolic blood pressure, 112.1 ± 2.3 mmHg and diastolic blood pressure, 72.5 ± 1.6 mmHg) normoglycemic (fasting glucose, 92.3 ± 1.8 mg/dL) and normolipidemic (total cholesterol, 181.1 ± 7.8 mg/dL and triglyceride 61.7 ± 7.5 mg/dL) completed the study in the Columbus, Ohio area. Participants were non-smokers, non-users of dietary supplements, non-regular tea drinkers (<2 cups/wk), consumed <3 alcoholic drinks/d, non-pregnant or non-lactating, not using any medications or antibiotics, and had no history of gastrointestinal disorders or surgeries.
Complete details of the pharmacokinetic study were reported in [24]. In brief, participants abstained from polyphenol-rich foods for 3 d. In the fasting state (10–12 h) on day 4, participants voided their bladder, and a catheter was inserted into the antecubital vein to collect blood samples at baseline (0 h) and at 0.25, 0.5, 1, 2, 3, 5, 8, 10, and 12 h post-ingestion of a confection formulated with catechin-rich GTE. Urine was collected in timed intervals from 0–4, 4–8, 8–12, and 12–24 h (Figure 2). Participants received standardized meals at 4 h (11:00), 6 h (13:00) and 12 h (19:00) following confection ingestion. Snacks (e.g., pretzels, crackers) were also provided between 13:00–19:00. All foods were devoid of polyphenols and provided to participants in a eucaloric manner based on estimated energy requirements using the Harris–Benedict formula [25]. Controlled meals were designed to provide 48–55% of energy from carbohydrates, 15–20% from proteins, and 20–35% from fats. No additional foods or beverages, except water, were consumed by participants during the 24 h trial period.
GTE confections were developed as an alternative delivery system for catechins because Americans prefer catechin-deplete black tea over catechin-rich green tea. Confections were prepared in-house and formulated with 84.5% water, 2% sucrose, 6% gelatin, 0.5% citric acid, 6% lime-flavored gelatin, and 1% decaffeinated GTE powder. Confections were prepared within 24 h of the participants’ pharmacokinetics trial and stored at 4 °C. Each participant ingested 2 confections (each 25 g and ~2.5″ cubed), which contained 0.5 g GTE (Sunphenon 90 LB, Taiyo International, Inc., Minneapolis, MN, USA) to provide 445 mg total catechins (290 mg EGCG, 87 mg EGC, 39 mg EC, 28 mg ECG). The catechin content of all confections was confirmed by HPLC analysis. Based on brewed green tea (250 mL prepared with 2.2 g of dry tea leaves) containing ~180 mg total catechins, GTE at 0.5 g approximates 2.5 cups of green tea.
Biospecimen handling and preservation of catechins concentrations in plasma and urine were described. In brief, venous plasma was collected in heparinized tubes, while urine was collected in sterilized containers. Samples were preserved by adding a solution of acetic acid, ascorbic acid, and EDTA, snap-frozen in liquid nitrogen and stored at −80 °C until analyzed. Plasma and urinary catechins (EGCG, EGC, ECG, EC) were analyzed by LC-MS following enzymatic hydrolysis and extraction as reported.
Tissue-specific kinetics of each catechin were determined by model-based compartmental analysis using the Windows version of Simulation, Analysis, and Modeling software (WinSAAM version 3.0.8). The observed data were expressed as a fraction of the ingested dose, i.e., the mass of catechins measured in plasma/urine at specified times divided by the mass of the ingested catechin dose. […]

[3] = in vivo; cited from earlier work
Caco-2 monolayer = conditions: cited from earlier work
pancreatic tumor cells = conditions: cited from earlier work
[4] = in vitro; cited from earlier work
[5] = alkaline pH; cited from earlier work
[6] = 0.5 g GTE confection, n = 19, two-way ANOVA with Tukey's post-hoc
[7] = fractional catabolic rate from plasma, not statistically significant

| Compound | mean FCR higher in females compared with males [2, 7] | alleviating pathological evidence of nonalcoholic steatohepatitis [1] | fractional catabolic rate (FCR), fraction of compound lost irreversibly from plasma per min, rank order [2, 6] | plasma residence time, rank order [2, 6] | fractional transfer rate from plasma to extravascular tissues, rank order ([2]; n = 19) | fractional transfer rate from plasma to kidneys, rank order ([2]; n = 19) | fractional transfer rate from the liver to plasma, rank order ([2]; n = 19) | fraction present in human plasma following oral administration of green tea [3] | basal-to-apical transport of catechins, rank order (Caco-2 monolayer; Caco-2 cell model) | anti-inflammatory activity compared with EGCG (pancreatic tumor cells) | also measured |
| --- | --- | --- | --- | --- | --- | --- | --- | --- | --- | --- | --- |
| Oc1cc(O)c2c(c1)OC(c1ccc(O)c(O)c1)C(O)C2 (single isomer, unassigned; (+)) [catechin, (+)-catechin] | – | effective | – | – | – | – | – | – | – | – | – |
| Oc1cc(O)c2c(c1)O[C@H](c1cc(O)c(O)c(O)c1)[C@H](O)C2 [EGC, epigallocatechin] | – | – | – | – | – | – | – | 0.58% | – | – | mean FCR higher in females compared with males ([2]; both, human, in vivo): 13%; fractional catabolic rate (FCR), fraction of compound lost irreversibly from plasma per min, rank order ([2]; in vivo): EGC > EGCG = EC > ECG; fractional transfer rate from plasma to extravascular tissues, rank order ([2]; in vivo): EGC > EGCG > EC > ECG; fractional transfer rate from plasma to kidneys, rank order ([2]; in vivo): EGC = EC > EGCG = ECG; fractional transfer rate from the liver to plasma, rank order ([2]; in vivo): EGC > EC > EGCG = ECG; plasma residence time, rank order ([2]; in vivo): ECG > EC = EGCG > EGC; basal-to-apical transport of catechins, rank order (Caco-2 monolayer): EC > EGC > ECG ≈ EGCG |
| catechin gallate [reference compound] | – | – | – | – | – | – | – | – | – | superior | – |

More lines, main results first:

| mean FCR higher in females compared with males [2, 7] | Compound | alleviating pathological evidence of nonalcoholic steatohepatitis [1] | fractional catabolic rate (FCR), fraction of compound lost irreversibly from plasma per min, rank order [2, 6] | plasma residence time, rank order [2, 6] | fractional transfer rate from plasma to extravascular tissues, rank order ([2]; n = 19) | fractional transfer rate from plasma to kidneys, rank order ([2]; n = 19) | fractional transfer rate from the liver to plasma, rank order ([2]; n = 19) | fraction present in human plasma following oral administration of green tea [3] | basal-to-apical transport of catechins, rank order (Caco-2 monolayer; Caco-2 cell model) | anti-inflammatory activity compared with EGCG (pancreatic tumor cells) | also measured |
| --- | --- | --- | --- | --- | --- | --- | --- | --- | --- | --- | --- |
| 9% | Oc1cc(O)c2c(c1)O[C@H](c1ccc(O)c(O)c1)[C@H](O)C2 [EC, epicatechin] | – | EGC > EGCG = EC > ECG | ECG > EC = EGCG > EGC | EGC > EGCG > EC > ECG | EGC = EC > EGCG = ECG | EGC > EC > EGCG = ECG | 1.1% | EC > EGC > ECG ≈ EGCG | – | – |
| 5% | O=C(O[C@@H]1Cc2c(O)cc(O)cc2O[C@@H]1c1ccc(O)c(O)c1)c1cc(O)c(O)c(O)c1 [ECG, epicatechin gallate] | – | EGC > EGCG = EC > ECG | ECG > EC = EGCG > EGC | EGC > EGCG > EC > ECG | EGC = EC > EGCG = ECG | EGC > EC > EGCG = ECG | – | EC > EGC > ECG ≈ EGCG | superior | fractional transfer from the small intestine to the liver ([2]; ECG compared with EC): slower; fractional transfer from kidneys to urine ([2]; ECG vs. EC): slower; fractional transfer rate from the upper gastrointestinal tract to the small intestine ([2]; compared with other catechins): faster |
| 33% | O=C(O[C@@H]1Cc2c(O)cc(O)cc2O[C@@H]1c1cc(O)c(O)c(O)c1)c1cc(O)c(O)c(O)c1 [EGCG, epigallocatechin gallate] | more potent | EGC > EGCG = EC > ECG | ECG > EC = EGCG > EGC | EGC > EGCG > EC > ECG | EGC = EC > EGCG = ECG | EGC > EC > EGCG = ECG | 0.16% | EC > EGC > ECG ≈ EGCG | – | free radical scavenging activity [4]: superior; loss by degradation in alkaline environment of the small intestine compared with ECG and EC [5]: greater loss |
